The values that follow come from the Kinase Knowledgebase extract (Sharma et al. 2016).

One assay addresses EGFR (human) (UniProt P00533). To be noted: nih3t3.
For a further assay, the target named is EGFR (UniProt P00533).

Molecules are shown by their SMILES. Some results are limits rather than exact numbers.

Chain of EGFR (P00533 whole entry, looked up): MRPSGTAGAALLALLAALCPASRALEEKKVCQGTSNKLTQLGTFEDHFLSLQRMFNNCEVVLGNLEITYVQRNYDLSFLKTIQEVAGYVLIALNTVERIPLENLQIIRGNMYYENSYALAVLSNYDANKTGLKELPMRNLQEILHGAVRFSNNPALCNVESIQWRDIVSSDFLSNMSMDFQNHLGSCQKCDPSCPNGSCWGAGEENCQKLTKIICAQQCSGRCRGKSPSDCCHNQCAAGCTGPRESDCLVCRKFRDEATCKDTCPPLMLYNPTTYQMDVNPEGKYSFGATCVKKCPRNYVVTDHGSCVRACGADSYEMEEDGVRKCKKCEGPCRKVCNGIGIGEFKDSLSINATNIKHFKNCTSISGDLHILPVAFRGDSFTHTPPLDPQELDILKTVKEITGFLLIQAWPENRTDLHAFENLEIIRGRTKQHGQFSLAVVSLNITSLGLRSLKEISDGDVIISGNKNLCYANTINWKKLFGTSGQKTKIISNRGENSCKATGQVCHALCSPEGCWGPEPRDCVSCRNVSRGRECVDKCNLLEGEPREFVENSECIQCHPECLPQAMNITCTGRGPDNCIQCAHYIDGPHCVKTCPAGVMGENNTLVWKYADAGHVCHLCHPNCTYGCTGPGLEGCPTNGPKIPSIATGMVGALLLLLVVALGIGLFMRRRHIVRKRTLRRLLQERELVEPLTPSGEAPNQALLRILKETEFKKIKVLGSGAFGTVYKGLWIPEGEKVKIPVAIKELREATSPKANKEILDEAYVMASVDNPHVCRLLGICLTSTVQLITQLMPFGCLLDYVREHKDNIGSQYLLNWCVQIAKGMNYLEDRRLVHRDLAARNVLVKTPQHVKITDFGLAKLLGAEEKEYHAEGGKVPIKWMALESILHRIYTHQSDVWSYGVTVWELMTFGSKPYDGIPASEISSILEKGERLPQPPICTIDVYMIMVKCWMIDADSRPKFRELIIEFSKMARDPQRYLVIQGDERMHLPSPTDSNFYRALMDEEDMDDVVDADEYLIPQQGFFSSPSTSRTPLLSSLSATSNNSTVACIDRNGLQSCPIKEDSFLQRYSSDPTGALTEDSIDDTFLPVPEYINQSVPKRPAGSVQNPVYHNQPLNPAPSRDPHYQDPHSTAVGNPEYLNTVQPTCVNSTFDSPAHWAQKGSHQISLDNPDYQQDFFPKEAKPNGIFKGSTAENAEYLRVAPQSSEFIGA
Chain of EGFR (human) (P00533 whole entry, looked up): as above

With `Cc1[nH]c(/C=C2\C(=O)Nc3ccc(Br)cc32)c(C)c1CCCN1CCOCC1`, the figures for the IC50 on EGFR (human) and at EGFR were 44.6 µM and above 100 µM, respectively. For `COc1ccc2c(c1)/C(=C/c1[nH]c(C)c(CCCN(C)C)c1C)C(=O)N2`, the IC50 (usually the point on the concentration scale where inhibition reaches its midpoint) on EGFR was above 100 µM. The compound `Cc1cccc2c1/C(=C/c1[nH]c(C)c(CCC(=O)O)c1C)C(=O)N2` returned an IC50 at EGFR (human) above 50 µM.

`Cc1cccc2c1/C(=C/c1[nH]cc(CCC(=O)O)c1C)C(=O)N2` registered an IC50 against EGFR (human) above 50 µM.

For the compound `Cc1ccc2c(c1)/C(=C/c1[nH]c(C)c(CCC(=O)O)c1C)C(=O)N2`, on EGFR (human), the IC50 is above 50 µM.

The compound `Cc1c(CCC(=O)O)c[nH]c1/C=C1\C(=O)Nc2ccc(I)cc21` gave an IC50 at EGFR (human) above 50 µM. The same measure, in the same setting: the same measure for `Cc1c(CCC(=O)O)c[nH]c1/C=C1\C(=O)Nc2ccc(Br)cc21`: above 50 µM. As to `Cc1[nH]c(/C=C2\C(=O)Nc3ccc(Cl)cc32)c(C)c1CCCN(C)C`, the IC50 is 7.49 µM on EGFR (human) and above 100 µM at EGFR.

For `Cc1[nH]c(/C=C2\C(=O)Nc3cc(-c4ccccc4)ccc32)c(C)c1CCC(=O)O`, the IC50 on EGFR (human) was found to be 32.7 µM. With `Cc1[nH]c(/C=C2\C(=O)Nc3ccccc32)c(C)c1CCCN(C)C`, the results for the IC50 against EGFR (human) and on EGFR were 12.6 µM and above 100 µM, respectively.

The compound `Cc1[nH]c(/C=C2\C(=O)Nc3cc(O)ccc32)c(C)c1CCC(=O)O` yielded an IC50 against EGFR (human) above 50 µM. As to `Cc1ccc2c(c1)/C(=C/c1[nH]c(C)c(CCCN(C)C)c1C)C(=O)N2`, the IC50 against EGFR (human) was 25.4 µM; against EGFR, above 100 µM.

Consider `Cc1[nH]c(/C=C2\C(=O)Nc3cccc(CCO)c32)c(C)c1CCCN(C)C`, for which the IC50 on EGFR (human) is 25.3 µM; at EGFR, above 100 µM. For the compound `Cc1[nH]c(/C=C2\C(=O)Nc3ccc(S(=O)(=O)N4CCOCC4)cc32)c(C)c1CCCN(C)C`, the IC50 was 29.8 µM on EGFR (human) and above 100 µM at EGFR.

Compound `COc1ccccc1-c1ccc2c(c1)NC(=O)/C2=C\c1[nH]c(C)c(CCCN2CCOCC2)c1C` yielded an IC50 against EGFR above 100 µM. Turning to `Cc1cccc2c1/C(=C/c1[nH]c(C)c(CCCN(C)C)c1C)C(=O)N2`, the IC50 at EGFR (human) was 20.2 µM; against EGFR it was above 100 µM. The corresponding values for `Cc1[nH]c(/C=C2\C(=O)Nc3ccc(S(N)(=O)=O)cc32)c(C)c1CCCN(C)C` are 6.59 µM and above 100 µM. The corresponding values for `Cc1[nH]c(/C=C2\C(=O)Nc3ccc(S(=O)(=O)N(C)C)cc32)c(C)c1CCCN(C)C` are 11.2 µM and above 100 µM. In turn, `Cc1c(CCC(=O)O)c[nH]c1/C=C1\C(=O)Nc2ccccc21` displayed an IC50 on EGFR (human) above 50 µM. The same measure, in the same setting: the same measure for `Cc1c(CCC(=O)O)c[nH]c1/C=C1\C(=O)Nc2cc(Cl)ccc21`: above 50 µM; for `Cc1ccc2c(c1)/C(=C/c1[nH]cc(CCC(=O)O)c1C)C(=O)N2`: above 50 µM. As to `Cc1[nH]c(/C=C2\C(=O)Nc3ccc(S(=O)(=O)NC(C)C)cc32)c(C)c1CCCN(C)C`, the IC50 against EGFR was above 100 µM. Compound `Cc1c(CCC(=O)O)c[nH]c1/C=C1\C(=O)Nc2ccc(Cl)cc21` returned an IC50 at EGFR (human) of 12 µM. The same measure, in the same setting: as for `Cc1[nH]c(/C=C2\C(=O)Nc3ccc(Cl)cc32)c(C)c1CCC(=O)O`, the figure is above 50 µM. For the compound `COc1ccc(-c2ccc3c(c2)NC(=O)/C3=C\c2[nH]c(C)c(CCCN(C)C)c2C)cc1`, on EGFR, the IC50 is above 100 µM. Take `Cc1c(CCC(=O)O)c[nH]c1/C=C1\C(=O)Nc2cc(Br)ccc21`: the IC50 on EGFR (human) was above 50 µM. Still for that read-out and setting: as for `Cc1c(CCC(=O)O)c[nH]c1/C=C1\C(=O)Nc2cc(-c3ccccc3)ccc21`, the figure is 30.5 µM; as for `Cc1[nH]c(/C=C2\C(=O)Nc3ccc(Br)cc32)c(C)c1CCC(=O)O`, above 50 µM.

With `COc1ccc2c(c1)NC(=O)/C2=C\c1[nH]c(C)c(CCCN(C)C)c1C`, the IC50 against EGFR is above 100 µM. Consider `Cc1[nH]c(/C=C2\C(=O)Nc3cc(-c4ccccc4)ccc32)c(C)c1CCCN1CCOCC1`, for which the results for the IC50 on EGFR (human) and against EGFR were above 50 µM and above 100 µM, respectively.

For the compound `Cc1[nH]c(/C=C2\C(=O)Nc3cc(Cl)ccc32)c(C)c1CCCN(C)C`, the IC50 against EGFR (human) was found to be 25.4 µM; against EGFR it was 86.6 µM. For the compound `Cc1[nH]c(/C=C2\C(=O)Nc3ccc(Br)cc32)c(C)c1CCCN(C)C`, the IC50 is 4.1 µM on EGFR (human) and above 100 µM against EGFR.

As to `Cc1[nH]c(/C=C2\C(=O)Nc3cc(-c4ccccc4)ccc32)c(C)c1CCCN(C)C`, the IC50 was 4 µM against EGFR (human) and above 100 µM against EGFR. In turn, `COc1cccc(-c2ccc3c(c2)NC(=O)/C3=C\c2[nH]c(C)c(CCCN3CCOCC3)c2C)c1` showed an IC50 against EGFR above 100 µM. Turning to `Cc1[nH]c(/C=C2\C(=O)Nc3ccccc32)c(C)c1CCCN1CCOCC1`, the figures for the IC50 against EGFR (human) and against EGFR were above 50 µM and above 100 µM, respectively.

`Cc1[nH]c(/C=C2\C(=O)Nc3ccc(I)cc32)c(C)c1CCC(=O)O`: the half-inhibitory concentration (IC50) against EGFR (human) is above 50 µM. As to `COc1ccc(-c2ccc3c(c2)NC(=O)/C3=C\c2[nH]c(C)c(CCCN3CCOCC3)c2C)cc1`, at EGFR, the IC50 was above 100 µM.
